Test results from patent publication US5580852A, “Derivatives of tachyplesin having inhibitory activity towards plant pathogenic fungi” (Pioneer Hi-Bred International, Inc., priority 1993, dated 1996).

Key:
Type in all cases: cell-based
Fusarium moniliforme = test: Antifungal testing, MIC and MCIC; details: comparison table
Aspergillus flavus = test: Antifungal testing, MIC and MCIC; details: comparison table
E. coli = details: bacterial host; statement in words

| Substance | MIC FMO (Fusarium moniliforme; known antimicrobial compounds) | MIC FMO (Fusarium moniliforme; value in parentheses) | MIC AFL (Aspergillus flavus; known antimicrobial compounds) | MIC AFL (Aspergillus flavus; value in parentheses) | toxicity to E. coli (E. coli) |
| --- | --- | --- | --- | --- | --- |
| CMIII | 18.2 mg/L | 4.6 µM | 60 mg/L | 15 µM |  |
| KWCFRVCYRGICYRRCR [tachyplesin, natural tachyplesin, small peptide originally isolated from the hemocytes of the horseshoe crab, Tachypleus tridentatus] | 6.25 mg/L | 2.8 µM | 6.25 mg/L | 2.8 µM | significant toxicity |
| hordothionin | 45 mg/L | 9 µM | 15 mg/L | 3 µM |  |
